# Data reported in patent US12409206B2, “Use of cyclosporine analogues for treating fibrosis” (Hepion Pharmaceuticals, Inc., priority 2020, dated 2025).
# What was measured:
# Format in all cases: cell-based
# [1] = system: Human LX-2 Hepatic Stellate Cells; test: Procollagen and fibronectin ELISA of spent medium, LX-2 culture; details: 24 hours, both in the absence or presence of 0.1 ng/ml TGFβ
# Description: (§1) Human LX-2 Hepatic Stellate Cells (Millipore-Sigma, Cat. #SCC064) were cultured in 96-well plates. Treatments were applied in triplicate wells (applied 100 ul treatments per well) for 24 hours. Cells were near confluence at the start of treatments. […] Spent culture medium collected at the end of the treatments was assayed for procollagen and fibronectin by enzyme-linked immunosorbent assays (ELISA) (Procollagen ELISA antibody pair (ab216064) and fibronectin ELISA antibody pair (ab222262) from Abcam). Procollagen and fibronectin were not detected in medium not applied to cells. Procollagen and fibronectin levels in the medium are represented by means±SD (bars) from 3 replicate wells (open circles).
# [2] = system: Human renal mesangial cells; test: Procollagen and fibronectin ELISA of spent medium, renal mesangial cell culture; details: medium from Day 2-4 of treatment, both in the absence or presence of 0.4 ng/ml TGFβ
# Description: as §1, with “renal mesangial cells (ScienCell,” for “LX-2 Hepatic Stellate Cells (Millipore-Sigma,”, “#4200 (SC))” for “#SCC064)”, “2 days, then re-applied for an additional 2 days.” for “24 hours.”, “from Day 2-4” for “at the end”, “treatment” for “the treatments”
# [3] = system: human precision cut liver slices (PCLS); test: PCLS RNA-Seq, Nonstimulation Protocol: Non-stimulated+CRV vs Non-stimulated+Vehicle; details: for log2FoldChange: Non-stimulated+CRV vs Non-stimulated+Vehicle; for fold change in RNA: absence of TGFβ+PDGF-BB, universal in all donors
# Description: PCLS were obtained from 5 human donors who underwent resection of liver cancer. Replicate slices were collected from healthy margins of the resections and cultured for 4 or 6 days depending on the experimental protocol. In the Nonstimulation Protocol slices were cultured for 6 days and treated for the entire period with DMSO vehicle or 5 μM CRV431. In the Stimulation Protocol slices were rested for 1 day and then administered the cytokines, TGFβ and PDGF-BB, for 3 days to stimulate inflammation and fibrosis. DMSO vehicle, CRV431 (1 and 5 μM), Alk5i (10 μM), obeticholic acid (5 μM), elafibranor (5 μM), resmetirom ([…]), and Aramchol (5 μM) were administered individually as drug treatments in the Stimulation Protocol concurrent with TGFβ+PDGF-BB. Culture medium treatments were replaced daily.
# Four types of evaluations were conducted on the PCLS: (a) secretion of inflammation and fibrosis biomarkers into the culture medium, (b) histological staining and quantitation of Sirius red as a measure of tissue fibrosis, (c) gene expression of inflammation and fibrosis biomarkers by RT-PCR, and (d) RNA sequencing (RNA-Seq) of the complete transcriptome. Each of the four types of evaluation is described below: • (a) Biomarker secretion. Spent culture medium was collected daily from duplicate slices for each treatment. ELISAs were used to quantify secretion of monocyte chemoattractant protein (MCP-1), interleukin-6 (IL-6), tissue inhibitor of metalloproteinase-1 (TIMP1), hyaluronic acid, fibronectin, and collagen 1α1. For each donor the mean level of biomarker secretion in each treatment group was expressed as a percentage change relative to DMSO vehicle, the percentages averaged for all donors, and finally the mean daily percentage change calculated from all days of evaluation. Results are shown in FIG. 8A (secreted markers-% daily average change). • (b) Sirius red histological staining. […] Sirius red was quantified morphometrically in the histological sections as the percentage area with Sirius red staining in 10 sections from each treatment. In the Nonstimulation Protocol the quantity of Sirius red staining was expressed relative to the vehicle group. In the Stimulation Protocol the quantity of Sirius red staining was expressed relative to nonstimulated PCLS (0%) and TGFβ+PDGF-BB-stimulated+vehicle PCLS (100%). Results are shown in FIG. 8B (Sirius red staining for tissue fibrosis). • (c) Gene expression by RT-PCR. RNA was isolated from duplicate liver slices per treatment at the end of the experiments and evaluated by RT-PCR for 5 markers of inflammation and fibrosis: MCP-1, IL-6, TIMP1, αSMA, and collagen 1α1. β actin was used as a reference gene to calculate relative levels of each target gene RNA. […] Results are shown in FIG. 8C (gene expression by RT-PCR). • (d) Gene expression by RNA-Seq. RNA sequencing of the complete transcriptome (30 million reads per sample) was conducted on vehicle and 5 μM CRV431 treatment groups from 3 donors both from the Nonstimulation and Stimulation Protocols. Data were analyzed by bioinformatics software programs to identify genes that were differentially expressed between vehicle and CRV431 treatments.
# For the evaluation done for (d), 12 samples corresponding to 3 different donor slides which underwent 4 different treatments were studied. the comparisons carried out in this analysis are: (1) TGFb/PDGF+CRV vs TGFb/PDGF+Vehicle (V), and (2) Non-stimulated+CRV vs Non-stimulated+Vehicle. […] Table 1. Samples for evaluation (d)
# Quality Control check was performed in all samples. All samples had more than 30 million reads and a quality score average >35 for almost all the bases in the sequences. The duplication levels are expected as it is RNA sequencing, and different copies of the same RNA are expected to be present in the samples. All samples had good amount of reads and quality, therefore all samples passed the QC checked and were included in the analysis. […]
smiles,measurement,setting,value
CC[C@@H]1NC(=O)[C@H]([C@H](O)[C@H](C)CCCCCCNC(C)=O)N(C)C(=O)[C@H](C(C)C)N(C)C(=O)[C@H](CC(C)C)N(C)C(=O)[C@H](CC(C)C)N(C)C(=O)[C@@H](C)NC(=O)[C@H](C)NC(=O)[C@H](CC(C)C)N(C)C(=O)[C@H](C(C)C)NC(=O)[C@H](CC(C)C)N(C)C(=O)[C@@H](C)N(C)C1=O [CRV431],abundance of fibronectin in the medium,[1],dose-dependently decreased
same,abundance of procollagen in the medium,[1],dose-dependently decreased
same,abundance of fibronectin in the medium,[2],dose-dependently decreased
same,abundance of procollagen in the medium,[2],dose-dependently decreased
same,log2FoldChange,[3]; gene ACOT9,0.543
same,log2FoldChange,[3]; gene AP003119.3,−0.67
same,log2FoldChange,[3]; gene AREG,1.034
same,log2FoldChange,[3]; gene CCDC149,0.76
same,log2FoldChange,[3]; gene CDH11,−0.915
same,log2FoldChange,[3]; gene CXCL12,0.623
same,log2FoldChange,[3]; gene CYP24A1,−1.499
same,log2FoldChange,[3]; gene DDX60,−0.739
same,fold change in RNA,[3]; gene DKK1,+3.8 fold
same,log2FoldChange,[3]; gene DNAJB9,0.721
same,fold change in RNA,[3]; gene ESM1,−2.2 fold
same,log2FoldChange,[3]; gene GDPD5,−0.606
same,log2FoldChange,[3]; gene GMPPA,0.768
same,fold change in RNA,[3]; gene IFI44L,−4.8 fold
same,log2FoldChange,[3]; gene KRT7,0.563
same,log2FoldChange,[3]; gene MPEG1,0.584
same,log2FoldChange,[3]; gene MS4A4A,0.735
same,log2FoldChange,[3]; gene NCOA3,−1.438
same,fold change in RNA,[3]; gene NCOA3,−2.7 fold
same,log2FoldChange,[3]; gene NREP,−0.638
same,log2FoldChange,[3]; gene NUCB2,0.851
same,log2FoldChange,[3]; gene NUMA1,−0.537
same,log2FoldChange,[3]; gene PGM3,0.751
same,log2FoldChange,[3]; gene POU2F2,2.856
same,log2FoldChange,[3]; gene SERPINB2,1.255
same,log2FoldChange,[3]; gene SNHG3,0.665
same,log2FoldChange,[3]; gene SOWAHC,−0.601
same,log2FoldChange,[3]; gene SRGAP2B,−0.729
same,fold change in RNA,[3]; gene mIR-194-2,−7.9 fold
